Measurements reported in ChEMBL document CHEMBL3739373, “1,2,3-Triazole derivatives as antitubercular agents: synthesis, biological evaluation and molecular docking study” (Medchemcomm, 2015).
Converted amounts (≈) assume the structure as drawn.

What was measured:
[1] = tested on: Mycobacterium tuberculosis; experiment: Antitubercular activity against dormant phase Mycobacterium tuberculosis H37Ra ATCC 25177 incubated for 12 days by XTT reduction menadione assay; assay type: functional, organism-based; conditions: 288 h
[2] = Antioxidant activity assessed as DPPH radical scavenging activity after 30 mins by spectrophotometric analysis; assay type: physicochemical
[3] = Selectivity index, ratio of GI50 for human PANC1 cells to MIC for dormant phase Mycobacterium tuberculosis H37Ra ATCC 25177; assay type: toxicity, cell-based, PANC-1; conditions: read-out: Selectivity Index
[4] = Cytotoxicity against human THP1 cells assessed as growth inhibition after 48 hrs by MTT assay; assay type: cell-based, THP-1; conditions: for GI50 at 48 h: THP1 cells; for GI90: thp-1, 48 h
[5] = Cytotoxicity against human PANC1 cells assessed as growth inhibition after 48 hrs by MTT assay; assay type: cell-based, PANC-1; conditions: for GI50 at 48 h: PANC1 cells; for GI90: panc-1, 48 h
A549 = experiment: (§1) Cytotoxicity against human A549 cells assessed as growth inhibition after 48 hrs by MTT assay; assay type: cell-based; conditions: a549, 48 h
[6] = as §1; assay type: cell-based; conditions: A549 cells
[7] = Selectivity index, ratio of GI50 for human A549 cells to MIC for dormant phase Mycobacterium tuberculosis H37Ra ATCC 25177; assay type: toxicity, cell-based; conditions: read-out: Selectivity Index
[8] = Selectivity index, ratio of GI50 for human THP1 cells to MIC for dormant phase Mycobacterium tuberculosis H37Ra ATCC 25177; assay type: toxicity, cell-based, THP-1; conditions: read-out: Selectivity Index

Structure (SMILES) | IC50 [1] [µg/mL] | MIC [1] [µg/mL] | IC50 [2] [µg/mL] | selectivity ratio [3] | GI50 at 48 h [4] [µg/mL] | GI90 [4] [µg/mL] | GI50 at 48 h [5] [µg/mL] | GI90 [5] [µg/mL] | GI90 (A549) [µg/mL] | GI50 at 48 h [6] [µg/mL] | selectivity ratio [7] | selectivity ratio [8]
Clc1cccc(Cn2cc(COc3c(Cl)cc(Cl)cc3Cl)nn2)c1 | 2.2 (≈ 5.46 µM) | > 30 | 16.4 (≈ 40.7 µM) | – | – | – | – | – | – | – | – | –
Cc1cc(OCc2cn(Cc3cccc([N+](=O)[O-])c3)nn2)ccc1Cl | 2.2 (≈ 6.13 µM) | > 30 | 15.6 (≈ 43.5 µM) | – | – | – | – | – | – | – | – | –
Clc1cccc(Cn2cc(COc3ccccc3)nn2)c1 | 2.4 (≈ 8.01 µM) | 27.7 (≈ 92.4 µM) | 27.3 (≈ 91.1 µM) | > 3.6 | 14.6 (≈ 48.7 µM) | 54.3 (≈ 181 µM) | > 100 | > 100 | > 100 | > 100 | > 3.6 | 0.5
Cc1ccc(OCc2cn(Cc3ccc(Br)cc3)nn2)cc1 | 7.8 (≈ 21.8 µM) | > 30 | 16.3 (≈ 45.5 µM) | – | – | – | – | – | – | – | – | –
Cc1ccc(OCc2cn(Cc3ccc([N+](=O)[O-])cc3)nn2)cc1 | 1.1 (≈ 3.39 µM) | 29.9 (≈ 92.2 µM) | 10.9 (≈ 33.6 µM) | > 3.3 | 14.2 (≈ 43.8 µM) | 66.4 (≈ 205 µM) | > 100 | > 100 | > 100 | > 100 | > 3.3 | 0.5
Cc1ccc(OCc2cn(Cc3cccc(Cl)c3)nn2)cc1 | 3 (≈ 9.56 µM) | 28.9 (≈ 92.1 µM) | 16.3 (≈ 51.9 µM) | > 3.5 | 36.7 (≈ 117 µM) | 93.1 (≈ 297 µM) | > 100 | > 100 | > 100 | > 100 | > 3.5 | 1.3
O=[N+]([O-])c1ccc(Cn2cc(COc3ccccc3)nn2)cc1 | 1.7 (≈ 5.48 µM) | 28 (≈ 90.2 µM) | 10.1 (≈ 32.5 µM) | > 3.6 | 62.9 (≈ 203 µM) | > 100 | > 100 | > 100 | > 100 | > 100 | > 3.6 | 2.2
Cc1cc(OCc2cn(Cc3ccc(Br)cc3)nn2)ccc1Cl | 2.4 (≈ 6.11 µM) | > 30 | 16.5 (≈ 42 µM) | – | – | – | – | – | – | – | – | –
O=[N+]([O-])c1cccc(Cn2cc(COc3ccccc3)nn2)c1 | 2.4 (≈ 7.73 µM) | > 30 | 25.3 (≈ 81.5 µM) | – | – | – | – | – | – | – | – | –
O=[N+]([O-])c1cccc(OCc2cn(Cc3cccc(Cl)c3)nn2)c1 | 26.6 (≈ 77.2 µM) | > 100 | 31.2 (≈ 90.5 µM) | – | – | – | – | – | – | – | – | –
O=[N+]([O-])c1cccc(Cn2cc(COc3c(Cl)cc(Cl)cc3Cl)nn2)c1 | 2.6 (≈ 6.29 µM) | > 30 | 29.2 (≈ 70.6 µM) | – | – | – | – | – | – | – | – | –
Brc1ccc(Cn2cc(COc3ccccc3)nn2)cc1 | 3.2 (≈ 9.3 µM) | 28.9 (≈ 84 µM) | 18.3 (≈ 53.2 µM) | > 3.5 | 16.2 (≈ 47.1 µM) | 68.3 (≈ 198 µM) | > 100 | > 100 | > 100 | > 100 | > 3.5 | 0.6
O=[N+]([O-])c1ccc(Cn2cc(COc3ccc(Cl)cc3)nn2)cc1 | 3.6 (≈ 10.4 µM) | 27.5 (≈ 79.8 µM) | 24.2 (≈ 70.2 µM) | > 3.6 | 31.1 (≈ 90.2 µM) | 88.9 (≈ 258 µM) | > 100 | > 100 | > 100 | > 100 | > 3.6 | 1.1
Cc1ccc(OCc2cn(Cc3ccc(Cl)cc3)nn2)cc1 | 2.5 (≈ 7.97 µM) | 24.2 (≈ 77.1 µM) | 17.3 (≈ 55.1 µM) | > 4.1 | 74.1 (≈ 236 µM) | > 100 | > 100 | > 100 | > 100 | > 100 | > 4.1 | 3.1
O=[N+]([O-])c1cccc(Cn2cc(COc3cccc([N+](=O)[O-])c3)nn2)c1 | 8.3 (≈ 23.4 µM) | > 30 | 19.1 (≈ 53.8 µM) | – | – | – | – | – | – | – | – | –
O=[N+]([O-])c1ccc(Cn2cc(COc3c(Cl)cc(Cl)cc3Cl)nn2)cc1 | 2.2 (≈ 5.32 µM) | > 30 | 28.9 (≈ 69.9 µM) | – | – | – | – | – | – | – | – | –
O=[N+]([O-])c1cccc(Cn2cc(COc3ccc(Cl)cc3)nn2)c1 | 2.6 (≈ 7.54 µM) | 29.2 (≈ 84.7 µM) | 21.3 (≈ 61.8 µM) | > 3.4 | 34.9 (≈ 101 µM) | 97.6 (≈ 283 µM) | > 100 | > 100 | > 100 | > 100 | > 3.4 | 1.2
O=[N+]([O-])c1cccc(OCc2cn(Cc3ccc(Cl)cc3)nn2)c1 | 53.4 (≈ 155 µM) | > 100 | 37.3 (≈ 108 µM) | – | – | – | – | – | – | – | – | –
O=[N+]([O-])c1ccc(OCc2cn(Cc3ccc(Br)cc3)nn2)c(I)c1 | 25 (≈ 48.5 µM) | > 30 | 18.5 (≈ 35.9 µM) | – | – | – | – | – | – | – | – | –
Clc1ccc(Cn2cc(COc3ccccc3)nn2)cc1 | 3.5 (≈ 11.7 µM) | 29.9 (≈ 99.7 µM) | 26.1 (≈ 87.1 µM) | > 3.3 | 36.4 (≈ 121 µM) | > 100 | > 100 | > 100 | > 100 | > 100 | > 3.3 | 1.2
O=[N+]([O-])c1ccc(Cn2cc(COc3cccc([N+](=O)[O-])c3)nn2)cc1 | > 100 | > 100 | 17.1 (≈ 48.1 µM) | – | – | – | – | – | – | – | – | –
Cc1ccc(OCc2cn(Cc3cccc([N+](=O)[O-])c3)nn2)cc1 | 2.4 (≈ 7.4 µM) | > 30 | 12.1 (≈ 37.3 µM) | – | – | – | – | – | – | – | – | –
O=[N+]([O-])c1cccc(OCc2cn(Cc3ccc(Br)cc3)nn2)c1 | 43.2 (≈ 111 µM) | > 100 | 29.4 (≈ 75.5 µM) | – | – | – | – | – | – | – | – | –
O=C1O[C@H]([C@@H](O)CO)C(O)=C1O [ASCORBIC ACID] | – | – | 12.7 (≈ 72.1 µM) | – | – | – | – | – | – | – | – | –
Cc1cc(C(C)(C)C)c(O)c(C(C)(C)C)c1 [BUTYLATED HYDROXYTOLUENE] | – | – | 16.5 (≈ 74.9 µM) | – | – | – | – | – | – | – | – | –
CC(=O)O[C@H]1C(=O)[C@@]2(C)[C@H]([C@H](OC(=O)c3ccccc3)[C@]3(O)C[C@H](OC(=O)[C@H](O)[C@@H](NC(=O)c4ccccc4)c4ccccc4)C(C)=C1C3(C)C)[C@]1(OC(C)=O)CO[C@@H]1C[C@@H]2O [PACLITAXEL] | – | – | – | > 2330 | 0.14 (≈ 0.164 µM) | 5.82 (≈ 6.82 µM) | 0.004 (≈ 0.00468 µM) | 0.07 (≈ 0.082 µM) | 5.72 (≈ 6.7 µM) | 0.13 (≈ 0.152 µM) | > 2330 | > 2330
CO[C@H]1/C=C/O[C@@]2(C)Oc3c(C)c(O)c4c(O)c(c(/C=N/N5CCN(C)CC5)c(O)c4c3C2=O)NC(=O)/C(C)=C\C=C\[C@H](C)[C@H](O)[C@@H](C)[C@@H](O)[C@@H](C)[C@H](OC(C)=O)[C@@H]1C [RIFAMPIN] | 0.002 (≈ 0.00243 µM) | 0.04 (≈ 0.0486 µM) | – | – | – | – | – | – | – | – | – | –
